Assay [1] addresses T1, VHR (Homo sapiens, UniProt P51452). Description: Inhibition constant and inhibition pattern (Lineweaver-Burk plot). It is filed as biochemical. The conditions noted are these: FIG. 1. On the procedure: Using the same format and buffer system as for […] measurements, the enzyme was preincubated with various fixed concentrations of inhibitors for 10 minutes. The reaction was initiated by addition of various concentrations of DiFMUP (ranging from 0.2 to 10 km) to the reaction mixture. The initial rate was determined using a FLx800 micro plate reader (Bio-Tek Instruments, Inc.), and exitation wave length of 360 nm and measuring the emission of the fluorescent reaction product DiFMU at 460 nm. The nonenzymatic hydrolysis of the substrate was corrected by measuring the control without addition of enzyme. The inhibition constant and inhibition pattern was evaluated by fitting the data to the Michaelis-Menten equations for either competitive, uncompetitive or mixed inhibition, using nonlinear regression and the program GraphPad Prism™.

In assay [2] the target is T1, VHR. Nature of the assay: PTP-catalyzed hydrolysis of DiFMUP, IC50 determination (VHR). Format: biochemical. The conditions noted are these: read-out: IC50. On the procedure:
The PTP-catalyzed hydrolysis of 6,8-difluoro-4-methylumbelliferyl phosphate (DiFMUP) in the presence of the test compound is assayed at 30° C. in a 60 μL 96 well format reaction system in 0.15 M Bis-Tris, pH 6.0 assay buffer having an ionic strength of 150 mM (adjusted with NaCl) and containing 1 mM dithiotreitol and 5% DMSO. At various concentrations of the compound, the initial rate at fixed DiFMUP concentration (equal to the corresponding Km value for each PTP) was determined using a FLx800 micro plate reader (Bio-Tek Instruments, Inc.), an excitation wave length of 360 nm and measuring the emission of the fluorescent reaction product 6,8-difluoro-7-hydroxy-4-methylcoumarin (DiFMU) at 460 nm. The nonenzymatic hydrolysis of the substrate was corrected by measuring the control without addition of enzyme. The IC50 value was determined by plotting the relative activity versus inhibitor concentrations and fitting to Equation 1 using the software GraphPad Prism™ (GraphPad Software, Inc.).
[formula] In this case, Vi, is the reaction velocity when the inhibitor concentration is [I], V0 is the reaction velocity with no inhibitor and IC50=Ki+Ki[S]/Km.

A further assay has as its target T2, heparanase (Homo sapiens, UniProt Q9Y251).
T2 sequence (Q9Y251 158-543 limits assumed): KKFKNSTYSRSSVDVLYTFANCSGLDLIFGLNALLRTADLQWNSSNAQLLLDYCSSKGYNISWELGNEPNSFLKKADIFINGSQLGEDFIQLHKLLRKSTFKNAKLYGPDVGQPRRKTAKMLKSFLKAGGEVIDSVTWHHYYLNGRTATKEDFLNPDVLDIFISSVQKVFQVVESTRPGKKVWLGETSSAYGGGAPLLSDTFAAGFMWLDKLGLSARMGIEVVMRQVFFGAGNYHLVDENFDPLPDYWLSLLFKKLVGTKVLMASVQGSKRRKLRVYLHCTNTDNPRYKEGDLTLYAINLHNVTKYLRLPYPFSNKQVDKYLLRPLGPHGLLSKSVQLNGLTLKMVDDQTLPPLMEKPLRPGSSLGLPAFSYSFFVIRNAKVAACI
T2 sequence (Q9Y251 36-109 partner limits assumed): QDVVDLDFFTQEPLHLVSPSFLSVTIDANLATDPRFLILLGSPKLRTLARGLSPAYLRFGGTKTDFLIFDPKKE
The conditions noted are these: cited from earlier work.

Another assay has as its system phospholipase A2. The conditions noted are these: cited from earlier work.
The next assay concerns Ball-1 cells. The conditions noted are these: in vitro, arrest at G1/S transition; cited from earlier work.
In another assay the target is HIV-1 protease (Human immunodeficiency virus type 1 group M subtype B, UniProt P04585). The conditions noted are these: cited from earlier work.

For orientation: pIC50 means the negative decadic logarithm of the IC50, by convention in mol/L.

pIC50: −log10 of the molar value. Read-outs that look alike come from different tables or passages of the source.

T1 sequence (P51452 whole entry): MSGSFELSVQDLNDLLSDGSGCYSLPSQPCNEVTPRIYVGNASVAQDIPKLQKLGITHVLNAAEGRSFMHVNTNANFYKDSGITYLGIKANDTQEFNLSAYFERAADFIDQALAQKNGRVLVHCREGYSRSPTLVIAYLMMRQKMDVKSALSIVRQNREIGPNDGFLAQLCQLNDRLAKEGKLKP

For the compound `O=C1/C(=C/C=C/c2ccccc2)SC(=S)N1CCS(=O)(=O)O` [2-[(Z)-4-oxo-5-((E)-3-phenylallylidene)-2-thioxothiazolidin-3-yl]ethane-sulfonic acid], the “inhibition pattern of VHR” value at VHR [1] was “competitive inhibition”.

On to “(Z)-2-[5-(5-bromo-1-methyl-2-oxoindolin-3-ylidene)-4-oxo-2-thioxothiazolindin-3-yl]ethanesulfonic acid [Compound 3]”, for which the pIC50 at VHR [2] (Table I, DiFMUP at Km, pH 6.0, 30° C.) was 4.49.

`CCOc1cc(/C=C2\SC(=S)N(CCS(=O)(=O)O)C2=O)ccc1O` [Compound 1, (Z)-2-[5-(3-Ethoxy-4-hydroxybenzylidene)-4-oxo-2-thioxothiazolidin-3-yl)ethansulfonic acid]: at VHR [2], the negative logarithm of the IC50 (pIC50) was 4.30.

`O=C1/C(=C/c2ccc(Cl)cc2Cl)SC(=S)N1CCS(=O)(=O)O` [Compound 2, (Z)-2-[5-(2,4-Dichlorobenzylidene)-4-oxo-2-thioxothiazolidin-3-yl)ethansulfonic acid]: the pIC50 at VHR [2] was 5.01.

In the case of `CCCCCCCCCCCCCCCC(=O)C1=C(O)C(CO)OC1=O` (stereo not drawn) [RK-682], the heparanase inhibition entry on heparanase was “heparanase inhibition”. For the same compound, the “phospholipase A2 inhibition” value in the assay on phospholipase A2 is given as “phospholipase A2 inhibition”. Moreover, in the assay with Ball-1 cells, the cell cycle progression result was “inhibited cell cycle progression”. For the same compound, on HIV-1 protease, the HIV-1 protease inhibition entry is listed as “HIV-1 protease inhibition”.

Regarding `O=C(CN1C(=O)C(/C=C2\SC(=S)N(CCS(=O)(=O)O)C2=O)c2ccccc21)Nc1ccc(F)cc1` (stereo not drawn) [Compound 4], the pIC50 at VHR [2] is 4.92.

Values taken from patent publication US8188080B2 (Sanford-Burnham Medical Research Institute, priority 2007, dated 2012).
